# Experimental data published in patent US20200062705A1, “NOVEL CRYSTALLINE FORMS” (Biogen MA Inc., priority 2017, published 2020).
# Assays:
# Format in all cases: physicochemical
# [1] = Relative stability of crystalline forms; conditions: comparison among crystalline forms identified
# [2] = Powder bulk density analysis (ring shear tester); conditions: for Initial Density: initial bulk density, corresponds to x = 0 in FIG. 21, mass of powder normalized by volume of the cell; for Density results (Table 21 and FIG. 21) compared with the product of Route D (E12): initial density and density at varying stresses, higher density = more ideal packing
# From the text: Solid forms prepared according to the procedures described for Routes D, E, and F (Examples 12-14, respectively) were subjected to powder bulk density analysis in accordance with the following procedure.
# A ring shear tester (RST-XS.s, Dietmar Schulze, Wolfenbüttel, Germany) with RST CONTROL 95 software was used for the bulk density analysis. For this analysis, Low-Stress Shear Cell, XS-Lr0, bottom ring was over-filled with small portions of powder using a spatula. The excess powder was removed by gently scraping off the powder with the spatula until the powder was flush with the top of the ring. The bottom ring was weighed and the total mass was entered. When prompted the shear cell lid was attached to the loading rod and the filled bottom ring placed on the driving axle for the test. The initial bulk density was calculated by the control software from the mass of powder normalized by the volume of the cell. During the shear test, 5 preshear normal stresses, 0.1, 0.2, 0.3, 0.4, and 0.5 kPa were applied to the powder before it was sheared until steady state was achieved. At each preshear normal stress, the powder was sheared to failure at 5 increasing normal stresses between 0 and the preshear normal stress to generate corresponding shear stresses at failure. A yield locus was generated by applying a linear regression to the shear stresses as a function of the normal stress plot. The Major Principal Stress (x-axis) was the maximum value obtained when a Mohr's circle was drawn through the preshear normal stress and tangential to the yield locus. The volume of powder at each steady state was determined from the change in height of the lid and, together with the initial powder mass, used to calculate the powder bulk densities (y-axis).
# [3] = Powder flow function analysis (ring shear tester); conditions: FIG. 22; lower flow function curve = good flow
# From the text: Solid forms prepared according to the procedures described for Routes D, E, and F (Examples 12-14, respectively) were subjected to powder flow function analysis in accordance with the following procedure:
# A ring shear tester (RST-XS.s, Dietmar Schulze, Wolfenbüttel, Germany) with RST CONTROL 95 software was used for the flow function analysis. For this analysis, Low-Stress Shear Cell, XS-Lr0, bottom ring was over-filled with small portions of powder using a spatula. The excess powder was removed by gently scraping off the powder with the spatula until the powder was flush with the top of the ring. The bottom ring was weighed and the total mass was entered. When prompted the shear cell lid was attached to the loading rod and the filled bottom ring placed on the driving axle for the test. To obtain a flow function, 5 yield loci were determined using the “Stress Walk” function in the control software. During the shear test, 5 preshear normal stresses, 0.1, 0.2, 0.3, 0.4, and 0.5 kPa were applied to the powder to generate the 5 yield loci. At each preshear normal stress, the powder was sheared to failure at 5 equally-spaced normal stresses between 0 and the preshear normal stress to generate corresponding shear stresses at failure. Each yield locus was derived by applying a linear regression to the shear stresses as a function of the normal stress plot. […]
# [4] = Powder time consolidation behavior analysis (ring shear tester); conditions: FIG. 23; 0 hrs vs 12 hrs storage, x=250 Pa
# From the text: Solid forms prepared according to the procedures described for Routes E and F (Examples 13 and 14, respectively) were subjected to powder time consolidation behavior analysis in accordance with the following procedure.
# A ring shear tester (RST-XS.s, Dietmar Schulze, Wolfenbüttel, Germany) with RST CONTROL 95 software was used for the flow function analysis. For this analysis, Low-Stress Shear Cell, XS-Lr0, bottom ring was over-filled with small portions of powder using a spatula. The excess powder was removed by gently scraping off the powder with the spatula until the powder was flush with the top of the ring. The bottom ring was weighed and the total mass was entered. When prompted the shear cell lid was attached to the loading rod and the filled bottom ring placed on the driving axle for the test. For the time consolidation test, a yield locus was first obtained by applying a 0.1 kPa preshear stress and 5 normal stresses equally spaced between 0 and the preshear stress to the powder and determining the corresponding shear stresses. A fresh powder sample was again prepared and conditioned to a similar steady state as that for the just obtained yield locus. […] The change in the shear stress obtained after this new conditioned state was determined and that represents the time consolidation behavior of the powder. […]
Structure (SMILES),Stability of the crystalline form relative to other forms [1],Initial Density [2],Density results (Table 21 and FIG. 21) compared with the product of Route D (E12) [2],Powder flow (flow function curve: unconfined yield strength vs major principal stress) compared with a product of Route D (E12) [3],Time consolidation effect (unconfined yield strength gained on storage) [4]
"Cl.NC(=O)[C@@H]1CC[C@H](c2ccc(OCc3ccccc3F)cc2)N1 [Form 9, (5R)-5-(4-{[(2-Fluorophenyl)methyl]oxy}phenyl)-L-prolinamide Hydrochloride Form 9 (Anhydrous B)]",less stable than Anhydrous Form A (Form 1),,,,
"Cl.NC(=O)[C@@H]1CC[C@H](c2ccc(OCc3ccccc3F)cc2)N1 [Example E13, (5R)-5-(4-{[(2-Fluorophenyl)methyl]oxy}phenyl)-L-prolinamide Hydrochloride (Anhydrous; Route E)]",,0.565 g/mL,far superior,better,
"Cl.NC(=O)[C@@H]1CC[C@H](c2ccc(OCc3ccccc3F)cc2)N1 [Form 10, (5R)-5-(4-{[(2-Fluorophenyl)methyl]oxy}phenyl)-L-prolinamide Hydrochloride Form 10 (Anhydrous C)]",less stable than Anhydrous Form A (Form 1),,,,
"Cl.NC(=O)[C@@H]1CC[C@H](c2ccc(OCc3ccccc3F)cc2)N1 [Example E12, (5R)-5-(4-{[(2-Fluorophenyl)methyl]oxy}phenyl)-L-prolinamide Hydrochloride (Anhydrous; Route D)]",,0.254 g/mL,,,
"Cl.NC(=O)[C@@H]1CC[C@H](c2ccc(OCc3ccccc3F)cc2)N1 [Form 1, (5R)-5-(4-{[(2-Fluorophenyl)methyl]oxy}phenyl)-L-prolinamide Hydrochloride Form 1 (Anhydrous A)]",most stable crystalline form identified to date,,,,
"Cl.NC(=O)[C@@H]1CC[C@H](c2ccc(OCc3ccccc3F)cc2)N1 [Example E14, (5R)-5-(4-{[(2-Fluorophenyl)methyl]oxy}phenyl)-L-prolinamide Hydrochloride (Anhydrous; Route F)]",,0.512 g/mL,far superior,better,does not exhibit as much of a consolidation effect as the product of Route E (E13)
